In PubChem BioAssay AID1117337 (Cheminformatics & Chemogenomics Research Group (CCRG), …, 2015):
Active and inactive are the calls of the source. The rule behind the calls is not given here.

Tested on: ADSC/ECFC co-culture, VEGF-stimulated, CD31 tube area
Assay: inhibition of endothelial tube formation, dose response, imaging, VEGF stimulation, CD31 staining, tube area, IC50 (AID 1117337)

| Compound | IC50 |
| --- | --- |
| CCCCC(CC)CN=C(N)NC(N)=NCCCCCCN=C(N)NC(N)=NCC(CC)CCCC (stereo unspecified) | 0.408 µM |
| CCCCCCCCCCCCCCCCCCCCCC(=O)Nc1ccn([C@@H]2O[C@H](CO)[C@@H](O)[C@H]2O)c(=O)n1 | > 10 µM (inactive) |
| CCCCCCCCCCCCCCCCNc1ccc(C(=O)O)cc1 | 0.367 µM |
| O=C(OCCO)c1ccccc1O | > 10 µM (inactive) |
| COc1cc(NCc2ccc3nc(N)nc(N)c3c2C)cc(OC)c1OC | 4.42 µM |
| CCCOc1ccc2nc(NC(=O)OC)[nH]c2c1 | 0.328 µM |
| CC(=O)N(O)CCCCCNC(=O)CCC(=O)N(O)CCCCCNC(=O)CCC(=O)N(O)CCCCCN | 4.53 µM |
| Cc1c(O)cc2c(c1C)O[C@](C)(CCC[C@H](C)CCC[C@H](C)CCCC(C)C)CC2 | > 10 µM (inactive) |
| Nc1c2ccccc2nc2ccccc12 | > 10 µM (inactive) |
| CCOC(=O)NC(C)(C)Cc1ccc(Cl)cc1 | > 10 µM (inactive) |
| CC(C)c1c(C(=O)Nc2ccccc2)c(-c2ccccc2)c(-c2ccc(F)cc2)n1CC[C@@H](O)C[C@@H](O)CC(=O)O | > 10 µM (inactive) |
| CSc1ccc2c(c1)C(N1CCN(C)CC1)Cc1ccccc1S2 (stereo unspecified) | > 10 µM (inactive) |
| CCCCCCCCOC(=O)c1ccccc1C(=O)OCCCCCCCC | > 10 µM (inactive) |
| COC(=O)Nc1nc2ccc(C(=O)c3cccs3)cc2[nH]1 | 0.102 µM |
| CCN(CC)CCOc1ccc(C(O)(Cc2ccc(Cl)cc2)c2ccc(C)cc2)cc1 (stereo unspecified) | 3.21 µM |
| Clc1ccc(C(Cn2ccnc2)OCc2ccc(Sc3ccccc3)cc2)c(Cl)c1 (stereo unspecified) | > 10 µM (inactive) |
| CN(C)C(=O)Oc1cccc([N+](C)(C)C)c1 | > 10 µM (inactive) |
| CCCCCCC[N+](CC)(CC)CCCCc1ccc(Cl)cc1 | 6.34 µM (inactive) |
| CCCCCCCCCCOCC(O)CN (stereo unspecified) | 6.55 µM (inactive) |
| Cc1cccc(C)c1NC(=O)CN1CCN(CCCC(c2ccc(F)cc2)c2ccc(F)cc2)CC1 | > 10 µM (inactive) |
| COc1ccccc1N1CCN(CC(O)COc2cc(OC)c(OC)c(OC)c2)CC1 (stereo unspecified) | > 10 µM (inactive) |
| C[n+]1cc2c3c(ccc2c2ccc4cc5c(cc4c21)OCO5)OCO3 | 0.537 µM |
| CC(C)=CCC/C(C)=C/CC/C(C)=C/C(=O)OCC(=O)[C@@]1(O)CC[C@H]2[C@@H]3CCC4=CC(=O)C=C[C@]4(C)[C@H]3[C@@H](O)C[C@@]21C | 3.34 µM |
| C[C@@]12C(=O)OC(=O)[C@]1(C)C1CCC2O1 | 1.23 µM |
| C[C@H](O)CN(C)C | > 10 µM (inactive) |
| CC(=O)Oc1ccc(C2(c3ccc(OC(C)=O)cc3)C(=O)Nc3ccccc32)cc1 | > 10 µM (inactive) |

| Compound | IC50 |
| --- | --- |
| C[C@@H]1C[C@H]2[C@@H]3CCC4=CC(=O)C=C[C@]4(C)[C@@]3(Cl)[C@@H](O)C[C@]2(C)[C@@]1(OC(=O)c1ccco1)C(=O)CCl | 4.99 µM |
| CC(C)CCCC(C)NCCC(C)C (stereo unspecified) | > 10 µM (inactive) |
| Oc1c(Cl)cc(Cl)cc1Sc1cc(Cl)cc(Cl)c1O | 1.79 µM |
| CN(Cc1cnc2nc(N)nc(N)c2n1)c1ccc(C(=O)N[C@@H](CCC(=O)O)C(=O)O)cc1 | > 10 µM (inactive) |
| CC(COc1ccccc1)NN (stereo unspecified) | > 10 µM (inactive) |
| O=[N+]([O-])c1cccc(S(=O)(=O)NCCNS(=O)(=O)c2cccc([N+](=O)[O-])c2)c1 | > 10 µM (inactive) |
| O=C(Nc1ccc(Cl)cc1)Nc1ccc(Cl)c(Cl)c1 | > 10 µM (inactive) |
| Cc1ccc([N+](=O)[O-])[c]2c1[O][Hg]2 | 0.668 µM |
| Cc1nc2ccccc2n1Cc1ccc(Cl)cc1 | 7.38 µM (inactive) |
| CN(C)CCOC1=Cc2ccccc2Sc2ccc(Cl)cc21 | > 10 µM (inactive) |
| C#C[C@]1(OC(C)=O)CC[C@H]2[C@@H]3CCC4=C/C(=N/O)CC[C@@H]4[C@H]3CC[C@@]21CC | > 10 µM (inactive) |
| C=CC(C)(O)CCC=C(C)CCC=C(C)C (stereo unspecified) | > 10 µM (inactive) |
| COc1cccc2c1C(=O)c1c(O)c3c(c(O)c1C2=O)C[C@@](O)(C(=O)CO)C[C@@H]3O[C@H]1C[C@H](N)[C@H](O)[C@H](C)O1 | 0.0429 µM |
| CN(C)/N=N/c1nc[nH]c1C(N)=O | 4.59 µM |
| CCC1C(=O)OCC1Cc1cncn1C (stereo unspecified) | > 10 µM (inactive) |
| CCC=CCC=CCC=CCCCCCCCC(=O)O | > 10 µM (inactive) |
| Clc1ccccc1C(c1ccccc1)(c1ccccc1)n1ccnc1 | 3.04 µM |
| Oc1ccc(O)cc1 | > 10 µM (inactive) |
| C1CN(P2(N3CC3)=NP(N3CC3)(N3CC3)=NP(N3CC3)(N3CC3)=N2)CCO1 (stereo unspecified) | 3.62 µM |
| O=C(Nc1ccc(Br)cc1)c1cc(Br)cc(Br)c1O | 1.81 µM |
| CCCCCCCCCCCCCCCCCC[N+](C)(C)CCC[Si](OC)(OC)OC | > 10 µM (inactive) |
| C=CCCCCCCCCC(=O)OC | > 10 µM (inactive) |
| COc1cccc2c1C(=O)c1c(O)c3c(c(O)c1C2=O)C[C@@](O)(C(=O)CO)CC3OC1CC(N2CCOC(OC)C2)C(O)C(C)O1 (stereo partly specified) | 0.003 µM |
| C[C@@H](NCCCc1cccc(C(F)(F)F)c1)c1cccc2ccccc12 | > 10 µM (inactive) |
| CN1CCN(CCCN2c3ccccc3Sc3ccc(S(=O)(=O)N(C)C)cc32)CC1 | > 10 µM (inactive) |
| CCCCCCCC/C=C\CCCCCCCCN | > 10 µM (inactive) |

| Compound | IC50 |
| --- | --- |
| CCCCc1oc2ccc(NS(C)(=O)=O)cc2c1C(=O)c1ccc(OCCCN(CCCC)CCCC)cc1 | 2.75 µM |
| CCCCCCCCCCCCCCCC(=O)OCC=C(C)C=CC=C(C)C=CC1=C(C)CCCC1(C)C | > 10 µM (inactive) |
| Cc1cc(C2CCCCC2)n(O)c(=O)c1 | > 10 µM (inactive) |
| CNS(=O)(=O)CCc1ccc2[nH]cc(C3CCN(C)CC3)c2c1 | > 10 µM (inactive) |
| CC(=O)Oc1ccc(C2(c3ccc(OC(C)=O)cc3)Oc3ccccc3NC2=O)cc1 | 2.27 µM |
| CC(C)(C)C(=O)OCOP(=O)(COCCn1cnc2c(N)ncnc21)OCOC(=O)C(C)(C)C | 0.391 µM |
| COC(=O)c1nc(Cl)c(Cl)nc1N | 0.865 µM |
| C[C@]12CC[C@@H]3c4ccc(O)cc4CC[C@H]3[C@@H]1CC[C@@H]2OC(=O)CCC1CCCC1 | 6.37 µM (inactive) |
| COCC(=O)O[C@]1(CCN(C)CCCc2nc3ccccc3[nH]2)CCc2cc(F)ccc2[C@@H]1C(C)C | > 10 µM (inactive) |
| N/C(=N\N=C\c1ccc(Cl)cc1)N/N=C/c1ccc(Cl)cc1 | > 10 µM (inactive) |
| CN1CCN(c2cc3c(nn2)Oc2ccccc2N3C)CC1 | > 10 µM (inactive) |
| COCC(C)N(C(=O)CCl)c1c(C)csc1C (stereo unspecified) | > 10 µM (inactive) |
| O=C(O)C1(C(=O)O)CCC1.[NH2-].[NH2-].[Pt+2] | > 10 µM (inactive) |
| O=c1oc2c(O)c(O)cc3c(=O)oc4c(O)c(O)cc1c4c23 | > 10 µM (inactive) |
| O=C(N/N=C/c1ccccc1O)c1ccncc1 | > 10 µM (inactive) |
| O=C1OC(OC(=O)c2cccnc2Nc2cccc(C(F)(F)F)c2)c2ccccc21 (stereo unspecified) | > 10 µM (inactive) |
| CCCCCCCCCCCC[N+](C)(C)CCOc1ccccc1 | 3.38 µM |
| COc1cccc(CCc2ccccc2OCC(CN(C)C)OC(=O)CCC(=O)O)c1 (stereo unspecified) | > 10 µM (inactive) |
| O=C(NC1CCN(CCc2c[nH]c3ccccc23)CC1)c1ccccc1 | > 10 µM (inactive) |
| O=C1c2c(O)cccc2Cc2cccc(O)c21 | 0.604 µM |
| Cc1cc(O)c2c(O)c3c(O)cccc3cc2c1 | > 10 µM (inactive) |
| CC(C)(CO)[C@@H](O)C(=O)NCCC(=O)NCCSSCCNC(=O)CCNC(=O)[C@H](O)C(C)(C)CO | > 10 µM (inactive) |
| CCCCCCCCCCCCCCCCCCOP(=O)([O-])OC1CC[N+](C)(C)CC1 | > 10 µM (inactive) |
| C#C[C@]1(O)CC[C@H]2[C@@H]3CCc4cc(O)ccc4[C@H]3CC[C@@]21C | > 10 µM (inactive) |
| Cc1c(O)cccc1C(=O)N[C@@H](CSc1ccccc1)[C@H](O)CN1C[C@H]2CCCC[C@H]2C[C@H]1C(=O)NC(C)(C)C | > 10 µM (inactive) |
| CCCSS/C(CCO)=C(\C)N(C=O)Cc1cnc(C)nc1N | > 10 µM (inactive) |

| Compound | IC50 |
| --- | --- |
| CC(C)=CCNc1ncnc2c1ncn2[C@@H]1O[C@H](CO)[C@@H](O)[C@H]1O | 2.66 µM |
| S=C=Nc1ccc(N=C=S)cc1 | > 10 µM (inactive) |
| CC[C@]1(O)CC[C@H]2[C@@H]3CCC4=CCCC[C@@H]4[C@H]3CC[C@@]21C | 6.25 µM (inactive) |
| CN(C)c1ccc(C(=C2C=CC(=[N+](C)C)C=C2)c2ccc(N(C)C)cc2)cc1 | 0.186 µM |
| Nc1ncn([C@@H]2O[C@H](CO)[C@@H](O)[C@H]2O)c(=O)n1 | > 10 µM (inactive) |
| CC[C@H](C)C(=O)O[C@H]1C[C@@H](C)C=C2C=C[C@H](C)[C@H](CC[C@@H]3C[C@@H](O)CC(=O)O3)[C@H]21 | 3.27 µM |
| COC(=O)C1=C(C)NC(C)=C(C(=O)OC(C)(C)CN(C)CCC(c2ccccc2)c2ccccc2)C1c1cccc([N+](=O)[O-])c1 (stereo unspecified) | > 10 µM (inactive) |
| COc1cc(C=C2CCC/C(=C\c3ccc(O)c(OC)c3)C2=O)ccc1O | > 10 µM (inactive) |
| O=C(CCBr)N1CCN(C(=O)CCBr)CC1 | 1.37 µM |
| CCN1CCC[C@H]1CNC(=O)c1c(OC)ccc(Br)c1OC | > 10 µM (inactive) |
| COC(=O)c1ccccc1C(=O)OC | > 10 µM (inactive) |
| CN1CC[C@H](c2c(O)cc(O)c3c(=O)cc(-c4ccccc4Cl)oc23)[C@H](O)C1 | 0.114 µM |
| CN1CCN(C2Cc3ccccc3Sc3ccc(Cl)cc32)CC1 (stereo unspecified) | 5.23 µM (inactive) |
| NC(=NCCCCCCN=C(N)/N=C(\N)Nc1ccc(Cl)cc1)/N=C(\N)Nc1ccc(Cl)cc1 | 1.35 µM |
| NC(=O)n1c(O)c(C(=O)c2cccs2)c2cc(Cl)ccc21 | > 10 µM (inactive) |
| CSc1ccc2c(c1)N(CCC1CCCCN1C)c1ccccc1S2 (stereo unspecified) | > 10 µM (inactive) |
| Cc1[nH]cnc1C[C@H]1CCc2c(C)c3ccccc3n2C1=O | > 10 µM (inactive) |
| COc1ccc(-c2nc3ccc(C4=NNC(=O)CC4C)cc3[nH]2)cc1 (stereo unspecified) | 2.89 µM |
| CC12CCC(CC1)C(C)(C)O2 | > 10 µM (inactive) |
| Cc1c(C(=O)NN2CCCCC2)nn(-c2ccc(Cl)cc2Cl)c1-c1ccc(Cl)cc1 | > 10 µM (inactive) |
| O=C(CBr)Nc1ccc(Cl)cc1C(=O)c1ccccc1F | > 10 µM (inactive) |
| CC(C)=CCOc1ccc(/C=C/C(=O)c2ccc(OCC=C(C)C)cc2OCC(=O)O)cc1 | > 10 µM (inactive) |
| CCCCCCCCCCCCCCCC[N+](C)(C)CC | 1.14 µM |
